In one test the test system is C. albicans. Put plainly: microbe, parasite or virus in culture. In kind it is cell-based. Particulars: C. albicans, BHI diluted 1/100, twofold dilutions from 20 μg/ml. The method, then: (§1) In the examples, the minimal microbicidal concentrations (MMC) and minimal inhibitory concentrations (MIC) were determined as follows, unless otherwise specified in the examples. Bacterial or fungal strains were cultured in BHI medium over night at 37° C. A volume of the culture was transferred to a new tube with BHI and incubated for two more hours. Thereafter the cells were spun down and the pellet was suspended in BHI medium diluted 1/100 (1% BHI). The concentration of bacterial or fungal cells was spectrophotometrically determined at 650 nm. The microbial concentrations were also determined by viable counts. Peptides serially diluted in 1% BHI by twofold or tenfold steps were added in triplicate to the wells of a microtiterplate (200 μl per well). The bacterial or fungal cell solutions were added in 10 μl volumes to give a final concentration of approximately 1-5×10^5 cells per ml in the well. The microplate was incubated at 37° C. in a humid chamber for two hours. Thereafter 5 μl was taken from each well and added as a drop onto a blood agar plate and incubated over night at 37° C. The microplate was incubated for another 20 hours at 37° C. and thereafter analysed spectrophotometrically at 650 nm in a microplate reader (Emax, Molecular Devices, USA). The concentration of peptide causing a 99% reduction of the inoculum after 2 hours of incubation was defined as the MMC99%. The MIC value was defined as the concentration giving no increase in the absorbance value above the background level after 20 hours of incubation.
Also in this example one of the peptides according to the invention—this time the peptide with SEQ. ID. NO. 4, was compared to a conventional fungicide, amphotericin. The antifungal activity against C. albicans was studied. Twofold serial dilutions with a starting concentration of 20 μg/ml were used. BHI diluted 1/100 was used as growth medium.

The subject of the next test is C. albicans (ATCC 64549). Put plainly: microbe, parasite or virus in culture. Particulars: for MMC99%: C. albicans ATCC 64549, 2×10^5 cells/ml, BHI diluted 1/100; for MIC: Candida albicans, ATCC64549. The method, then: as §1
In this example the fungicidal activity of one of the peptides according to the invention, the peptide with SEQ. ID. NO. 7, was compared to the conventional antifungal agents flucytosine and fluconazole, and also to human lactoferrin (hLF). The antifungal agents were tested on C. albicans (ATCC 64549) in a concentration of 2×10^5 cells/ml. The tests were performed in BHI medium diluted 1/100.

In the next test the test system is C. albicans (ATCC64549). In kind it is cell-based. The method in brief: (§2)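 Microbes at ~1–5×10^5 cells/mL in 1% BHI exposed to peptides (1, 10, 25, 100 µg/ml) at 37 °C. MMC99%: concentration killing 99% of inoculum after 2 h, by spotting onto blood agar. MIC: no absorbance rise at 650 nm above background after a further 20 h.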
For the next test, the system named is E. coli O6. In kind it is cell-based. Put shortly:
as §2

For test [1], the system named is C. albicans yeast cells (ATCC64549). Description: killing and growth inhibition of C. albicans at pH 4.5 (Example 11). In kind it is cell-based. Further details: key to C. albicans inhibition (OD650): + = no increase in OD650 is seen; − = OD650 continues to increase. Particulars: pH 4.5, 1% BHI, 25 μg/ml of the peptide. The method in brief: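 Yeast cells exposed 2 h at pH 4.5 to 25 µg/ml peptide in 1% BHI, then plated on blood agar. Killing scored as 100% and 99% fungicidal effect; growth inhibition read as no OD650 increase after a further 18 h.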

The test system of a further test is E. faecalis. Description: killing of bacteria at fixed peptide concentration, E. faecalis (Example 12). Particulars: peptide 25 μg/ml. In kind it is cell-based. The method, then: (§3) In this example, the peptides according to the invention were used to study the effect on the killing of different bacteria.
(§4) The peptides were used at a concentration of 25 μg/ml.

In the next test the test system is S. epidermis. Put plainly: killing of bacteria at fixed peptide concentration, S. epidermis (Example 12). In kind it is cell-based. Particulars: peptide 25 μg/ml. The method, then:
as §3, §4

A further test relates to S. aureus. Description: killing of bacteria at fixed peptide concentration, S. aureus (Example 12). The note with it: peptide 25 μg/ml. The class given is cell-based. The method, then:
as §3, §4

A further test deals with K. pneumoniae. Put plainly: killing of bacteria at fixed peptide concentration, K. pneumoniae (Example 12). The class given is cell-based. Particulars: peptide 25 μg/ml. The method, then:
as §3, §4

The next test relates to P. aeruginosa. Description: killing of bacteria at fixed peptide concentration, P. aeruginosa (Example 12). In kind it is cell-based. The note with it: peptide 25 μg/ml. The method, then: as §3, §4
The next test relates to multiresistant S. aureus. Put plainly: bactericidal activity, multiresistant S. aureus (Example 18). In kind it is cell-based. Particulars: multiresistant S. aureus 5.0×10^5 per ml. The method, then:
In this example the bactericidal activity of two of the peptides according to the invention was studied in a test with a multiresistant S. aureus. A bacterial solution with a concentration of 5.0×10^5 S. aureus bacterial per ml was used. The concentration of each peptide needed to kill 99% of the bacteria (MMC99%) was determined after 2 hours and after 24 hours of incubation at 37° C.

This is an account of results in US7803757B2, “Peptides based on the sequence of human lactoferrin and their use” (PharmaSurgics in Sweden AB, priority 1998, dated 2010).

Values after ≈ are worked out from the molar mass of the structure shown. Ends that are not written are not given here. Bounds are passed on as bounds.

On to `C[C@@H]1[C@H](O)[C@@H](C)/C=C/C=C/C=C/C=C/C=C/C=C/C=C/[C@H](O[C@@H]2O[C@H](C)[C@@H](O)[C@H](N)[C@@H]2O)C[C@@H]2O[C@](O)(C[C@@H](O)C[C@@H](O)[C@H](O)CC[C@@H](O)C[C@@H](O)CC(=O)O[C@H]1C)C[C@H](O)[C@H]2C(=O)O` [Amphotericin, amphotericin, reference compound], for which the MMC99% in the test on C. albicans is 2.5 µg/mL. Besides, the MIC with C. albicans (Candida albicans, read-out: MIC) was 0.6 µg/mL (≈ 0.649 µM).

Take `OC(Cn1cncn1)(Cn1cncn1)c1ccc(F)cc1F` [Fluconazole, fluconazole, reference compound]: in the test on C. albicans (ATCC 64549), the MMC99% is more than 500 µg/mL and the MIC was more than 500 µg/mL.

As for `Nc1[nH]c(=O)ncc1F` [Flucytosine, flucytosine, reference compound], in the test with C. albicans (ATCC 64549), the MMC99% was more than 500 µg/mL and the MIC was determined as 250 µg/mL (≈ 1940 µM).

In the case of KCFQWQRNMRKVR [Peptide 48], the MIC against C. albicans (ATCC64549) (ATCC64549) and against E. coli O6 (O6) was 10 µg/mL in each case. For the same compound, the MMC99% is 10 µg/mL in the test with C. albicans (ATCC64549) (C. albicans, tested at 1, 10, 25 and 100 μg/ml of peptide); 10 µg/mL with E. coli O6 (E. coli O6, tested at 1, 10, 25 and 100 μg/ml of peptide); 5.0 µg/mL in the test on multiresistant S. aureus (2 hours at 37° C.); “≦0.32 μg/ml” with multiresistant S. aureus (24 hours at 37° C.). The “C. albicans inhibition (OD650)” value in test [1] (OD650 after an additional 18 hours) is given as “+”. Moreover, in [1] (2 hours), the “C. albicans killing: 99%” value is reported as “+ (+ = 100/99% of the bacteria are killed)”. For the same compound, in test [1] (2 hours), the “C. albicans killing: 100%” value is recorded as “+ (+ = 100/99% of the bacteria are killed)”. Moreover, in the test on E. faecalis, the “killing of bacteria: E. faecalis” value is “+ (+ = 99% of the bacteria are killed)”. Moreover, the “killing of bacteria: S. epidermis” value in the test with S. epidermis is recorded as “+ (+ = 99% of the bacteria are killed)”. Besides, the “killing of bacteria: S. aureus” value with S. aureus is “+ (+ = 99% of the bacteria are killed)”. Moreover, the “killing of bacteria: K. pneumoniae” value in the test on K. pneumoniae was “+ (+ = 99% of the bacteria are killed)”. Also, the “killing of bacteria: P. aeruginosa” value in the test on P. aeruginosa was “+ (+ = 99% of the bacteria are killed)”.
